Laboratory results published in patent US20230339886A1 (University of Florida Research Foundation, Incorporated, priority 2020, published 2023).

Columns and labels:
[1] = molecular target: T1, REV-ERBα LBD (human; residues 281-614 Δ324-422) (Homo sapiens, UniProt P20393, DEL324-422); assay: TR-FRET corepressor interaction assay (REV-ERBα LBD, FITC-SMRT peptide); type: biochemical; settings: Table 2, read-out: REVERBα agonism (EC50 class, FRET assay)
T1 construct: 6×Histag-REV-ERBα LBD (human; residues 281-614 Δ324-422); made in house; host or cells: Escherichia coli
Outline: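 Compound serial dilutions (in DMSO, triplicate) incubated 2 h at 4 °C; Tb donor excited at 340 nm, emission read at 495 nm and FITC acceptor at 520 nm. TR-FRET ratio (520/495 nm) plotted against ligand concentration and fitted to a sigmoidal dose-response curve.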

REV-ERBβ = molecular target: T2, REV-ERBβ (Homo sapiens, UniProt Q14995); assay: TR-FRET corepressor interaction assay (REV-ERBβ, FITC-SMRT peptide); type: biochemical; settings: Table 2, read-out: REVERBβ agonism (EC50 class, FRET assay)
T2 construct: 6×Histag-REV-ERBα LBD (human; residues 381-579); made in house; host or cells: Escherichia coli
T2 sequence (Q14995 381-579): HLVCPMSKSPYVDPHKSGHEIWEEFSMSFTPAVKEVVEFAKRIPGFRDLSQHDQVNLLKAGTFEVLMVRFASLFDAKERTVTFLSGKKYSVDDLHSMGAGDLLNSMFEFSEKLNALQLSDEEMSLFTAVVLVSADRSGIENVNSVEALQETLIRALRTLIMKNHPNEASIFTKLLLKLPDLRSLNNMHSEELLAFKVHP
Protocol: TR-FRET corepressor interaction assay. The time-resolved fluorescence resonance energy transfer (TR-FRET) assay was performed in black low-volume 384-well plates (Greiner). […] Ligand stocks were prepared via serial dilution in DMSO, added to wells in triplicate, and plates were incubated at 4° C. for 2 h and read using a BioTek Synergy Neo multimode plate reader. The Tb donor was excited at 340 nm; its fluorescence emission was monitored at 495 nm, and the acceptor FITC emission was measured at 520 nm; and the TR-FRET ratio was calculated as the signal at 520 nm divided by the signal at 495 nm. Data were plotted using GraphPad Prism as TR-FRET ratio vs. ligand concentration and fit to sigmoidal dose response curve equation.
Exemplary compounds of the present disclosure were assayed as described above to assess agonism of REV-ERBα and REV-ERBβ.

T1 sequence (P20393 with tags, fused parts or gaps DEL324-422): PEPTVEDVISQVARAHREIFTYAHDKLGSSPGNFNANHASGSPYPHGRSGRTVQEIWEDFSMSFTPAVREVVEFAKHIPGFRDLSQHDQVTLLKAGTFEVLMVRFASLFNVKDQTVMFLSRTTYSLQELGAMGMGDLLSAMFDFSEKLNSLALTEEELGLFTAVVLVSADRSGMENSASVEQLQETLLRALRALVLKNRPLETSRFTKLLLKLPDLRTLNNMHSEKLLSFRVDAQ
T1 sequence (Q9Y618 2335-2356 partner limits assumed): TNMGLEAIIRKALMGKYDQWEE

EC50 [1] [µM] | EC50 (REV-ERBβ) [µM] | SMILES
< 0.5 | > 3 | CC(C)Cn1cc(CCNS(=O)(=O)N(C)C)c2ccc(-c3cn[nH]c3)cc21 [Compound 35, dimethyl({2-[1-(2-methylpropyl)-6-(1H-pyrazol-4-yl)-1H-indol-3-yl]ethyl}sulfamoyl)amine]
< 0.5 | > 3 | CC(C)Cn1cc(CCNS(=O)(=O)N(C)C)c2ccc(-c3ccnn3C)cc21 [Compound 34, dimethyl({2-[6-(1-methyl-1H-pyrazol-5-yl)-1-(2-methylpropyl)-1H-indol-3-yl]ethyl}sulfamoyl)amine]
< 0.5 | > 3 | CC(C)Cn1cc(CCNS(=O)(=O)N(C)C)c2ccc(C(F)(F)F)cc21 [Example 105, dimethyl({2-[1-(2-methylpropyl)-6-(trifluoromethyl)-1H-indol-3-yl]ethyl}sulfamoyl)amine]
< 0.5 | 0.5 to 3 | CC(C)(C)Cc1cn(CCNS(=O)(=O)C2CC2)c2ccc(-c3cccc(F)c3C(F)(F)F)cc12 [Example 227, N-(2-(5-(3-fluoro-2-(trifluoromethyl)phenyl)-3-neopentyl-1H-indol-1-yl)ethyl) cyclopropanesulfonamide]
< 0.5 | > 3 | CC(C)Cn1cc(CCNS(=O)(=O)CC(C)C)c2ccc(-c3ccncc3)cc21 [Compound 12]
< 0.5 | > 3 | CC(C)Cn1cc(CCNS(=O)(=O)N(C)C)c2ccc(-c3ccnc(Cl)c3)cc21 [Compound 20]
0.5 to 3 | > 3 | CC(C)Cn1cc(CCNS(=O)(=O)N(C)C)c2ccccc21 [Compound 68, dimethyl({2-[1-(2-methylpropyl)-1H-indol-3-yl]ethyl}sulfamoyl)amine]
0.5 to 3 | > 3 | CC(C)Cn1cc(CCNS(=O)(=O)N(C)C)c2ccc(-c3ncccn3)cc21 [Compound 32, dimethyl({2-[1-(2-methylpropyl)-6-(pyrimidin-2-yl)-1H-indol-3-yl]ethyl}sulfamoyl)amine]
< 0.5 | > 3 | CC(C)Cn1cc([C@H](NS(=O)(=O)C2CC2)C(F)(F)F)c2cc(F)c(-c3ccccc3C(F)(F)F)cc21 [Example 313, (S)—N-(2,2,2-trifluoro-1-(5-fluoro-1-isobutyl-6-(2-(trifluoromethyl)phenyl)-1H-indol-3-yl)ethyl)cyclopropanesulfonamide]
0.5 to 3 | > 3 | CC(C)(C)Cc1cn(CCNS(=O)(=O)C2CC2)c2ccc(Br)cc12 [Example 298, N-(2-(5-bromo-3-neopentyl-1H-indol-1-yl)ethyl)cyclopropanesulfonamide]
< 0.5 | > 3 | O=S(=O)(NCc1cn(CC2(C(F)(F)F)CC2)c2cc(-c3ccncc3Cl)c(F)cc12)C1CC1 [Compound 286]
< 0.5 | > 3 | Cc1cc2c(CCNS(=O)(=O)N(C)C)cn(CC(C)C)c2cc1C [Example 120, ({2-[5,6-dimethyl-1-(2-methylpropyl)-1H-indol-3-yl]ethyl}sulfamoyl)dimethylamine]
0.5 to 3 | 0.5 to 3 | CC(C)(C)Cc1cn(CCNS(=O)(=O)C2CC2)c2ccc(-c3c(Cl)cc(F)cc3Cl)cc12 [Example 297, N-(2-(5-(2,6-dichloro-4-fluorophenyl)-3-neopentyl-1H-indol-1-yl)ethyl) cyclo-propane sulfonamide]
< 0.5 | > 3 | CC(C)Cn1cc(CNS(=O)(=O)C(C)C)c2cc(F)c(-c3ccncc3)cc21 [Compound 265]
< 0.5 | 0.5 to 3 | CC(C)Cn1cc(CCNS(=O)(=O)N(C)C)c2ccc(C3CCCC3)cc21 [Compound 99, ({2-[6-cyclopentyl-1-(2-methylpropyl)-1H-indol-3-yl]ethyl}sulfamoyl)dimethylamine]
> 3 | > 3 | CC(C)Cn1cc(CCNS(=O)(=O)N(C)C)c2ccc(-c3cc[nH]c(=O)c3)cc21 [Compound 18]
< 0.5 | > 3 | CC(C)C(=O)n1cc(C(C)NS(=O)(=O)N(C)C)c2ccc(-c3ccncc3)cc21 (stereo not shown) [Example 180, 1-(3-{1-[(dimethylsulfamoyl)amino]ethyl}-6-(pyridin-4-yl)-1H-indol-1-yl)-2-methylpropan-1-one]
< 0.5 | 0.5 to 3 | CC(C)Cn1cc(CCNS(=O)(=O)N(C)C)c2ccc(C(C)C)cc21 [Compound 91, dimethyl({2-[1-(2-methylpropyl)-6-(propan-2-yl)-1H-indol-3-yl]ethyl}sulfamoyl)amine]

EC50 [1] [µM] | EC50 (REV-ERBβ) [µM] | SMILES
< 0.5 | 0.5 to 3 | CC(C)(C)Cc1cn(CCNS(=O)(=O)C2CC2)c2ccc(-c3ccccc3C(F)(F)F)cc12 [Example 212, N-(2-(3-neopentyl-5-(2-(trifluoromethyl)phenyl)-1H-indol-1-yl)ethyl)cyclopropane sulfonamide]
> 3 | > 3 | Cc1noc(C)c1S(=O)(=O)NCCc1cn(CC(C)C)c2cc(-c3ccncc3)ccc12 [Compound 14]
< 0.5 | > 3 | CC(C)Cn1cc(CCNS(=O)(=O)C(C)C)c2cc(F)c(-c3ccncc3Cl)cc21 [Compound 263]
< 0.5 | 0.5 to 3 | CC(C)(C)Cc1cn(CCNS(=O)(=O)C2CC2)c2ccc(-c3ccc(F)cc3C(F)(F)F)cc12 [Example 301, N-(2-(5-(4-fluoro-2-(trifluoromethyl)phenyl)-3-neopentyl-1H-indol-1-yl)ethyl) cyclopropanesulfonamide]
< 0.5 | > 3 | CC(C)Cn1cc(CCNS(=O)(=O)N(C)C)c2ccc(-c3cccc4ccccc34)cc21 [Compound 39, dimethyl({2-[1-(2-methylpropyl)-6-(naphthalen-1-yl)-1H-indol-3-yl]ethyl}sulfamoyl)amine]
< 0.5 | > 3 | CC(C)Cn1cc(CCNS(=O)(=O)N(C)C)c2ccc(-c3ccncc3)nc21 [Example 203, dimethyl({2-[1-(2-methylpropyl)-6-(pyridin-4-yl)-1H-pyrrolo[2,3-b]pyridin-3-yl]ethyl}sulfamoyl)amine]
< 0.5 | 0.5 to 3 | CC(C)Cn1cc(CCNS(=O)(=O)N(C)C)c2ccc(-c3ccnc4ccccc34)cc21 [Compound 37, dimethyl({2-[1-(2-methylpropyl)-6-(quinolin-4-yl)-1H-indol-3-yl]ethyl}sulfamoyl)amine]
< 0.5 | > 3 | CC(C)Cn1cc(CCNS(=O)(=O)N(C)C)c2ccc(-c3cccnc3)cc21 [Compound 28, dimethyl({2-[1-(2-methylpropyl)-6-(pyridin-3-yl)-1H-indol-3-yl]ethyl}sulfamoyl)amine]
0.5 to 3 | > 3 | CC(C)Cn1cc(CCNS(=O)(=O)N(C)C)c2ccc(-c3ccnc(N)c3)cc21 [Compound 21]
0.5 to 3 | > 3 | CC(C)Cn1cc(CCNS(=O)(=O)c2cccnc2)c2ccc(-c3ccncc3)cc21 [Compound 15]
< 0.5 | 0.5 to 3 | CC(C)c1ccc2c([C@H](NS(=O)(=O)N(C)C)C(F)(F)F)cn(CC(C)(C)C)c2c1 [Example 340, {[(1S)-1-[1-(2,2-dimethylpropyl)-6-(propan-2-yl)-1H-indol-3-yl]-2,2,2-trifluoroethyl]sulfamoyl}dimethylamine]
< 0.5 | 0.5 to 3 | CC(C)C(=O)n1cc(C(C)NS(=O)(=O)N(C)C)c2ccc(-c3ccccc3C(F)(F)F)cc21 (stereo not shown) [Example 195, 1-(3-{1-[(dimethylsulfamoyl)amino]ethyl}-6-[2-(trifluoromethyl)phenyl]-1H-indol-1-yl)-2-methylpropan-1-one]
0.5 to 3 | > 3 | CC(C)Cn1cc(CCNS(=O)(=O)N(C)C)c2ccc(-c3cncnc3)cc21 [Compound 29, dimethyl({2-[1-(2-methylpropyl)-6-(pyrimidin-5-yl)-1H-indol-3-yl]ethyl}sulfamoyl)amine]
< 0.5 | > 3 | CC(C)Cc1cn(CCNS(=O)(=O)C2CC2)c2ncc(-c3ccncc3)cc12 [Example 365, N-(2-(3-isobutyl-5-(pyridin-4-yl)-1H-pyrrolo[2,3-b]pyridin-1-yl)ethyl)cyclopropanesulfonamide]
0.5 to 3 | > 3 | Cc1ccc2c(c1)c(CC(C)(C)C)cn2CCNS(=O)(=O)C1CC1 [Example 296, N-(2-(5-methyl-3-neopentyl-1H-indol-1-yl)ethyl)cyclopropanesulfonamide]
< 0.5 | 0.5 to 3 | CC(C)(C)Cn1cc(CNS(=O)(=O)C2CC2)c2cc(F)c(-c3ccccc3C(F)(F)F)cc21 [Compound 278]
< 0.5 | > 3 | CC(C)(C)Cn1cc([C@H](NS(=O)(=O)C2CC2)C(F)(F)F)c2cc(F)c(Br)cc21 [Example 342, (S)—N-(1-(6-bromo-5-fluoro-1-neopentyl-1H-indol-3-yl)-2,2,2-trifluoroethyl)cyclopropanesulfonamide]
